# Tested on: MBP–CSSR (core stress-sensing region of yeast Ire1)
# Experiment: In vitro competition assay for peptide binding to the CSSR (fluorescence anisotropy of ΔEspP–FAM)
# Parameters: species or system Saccharomyces cerevisiae
# Conditions: Fig. 6C
# Description: Fig. 6. Two-hybrid and in vitro interaction of the CSSR with various peptides. (A,B) A yeast two-hybrid analysis was performed using the CSSR and its mutants as prey. The Subregion I 60-amino-acid portion (Sub-I), Segment 4 (Seg4; six tandem repeat), GGGSS (12 tandem repeat), Segments 1–3 (Segs1–3; amino acids 32–61 of yeast Ire1; two tandem repeat), Segments 4–6 (Segs4–6; amino acids 62–91 of yeast Ire1; two tandem repeat), the NUCR of human or mouse PERK (hPERK or mPERK), the Top2 IDR (Top2; two tandem repeat) and the San1 IDR (San1) were used as bait. Tester cell cultures were serially diluted tenfold, spotted on agar plates, incubated for 2–4 days and photographed. WT, wild type. (C) A fluorescently labeled peptide DEspP–FAM (10 µM final concentration) was mixed with MBP–CSSR (5 µM final concentration) and a competitor peptide [Segment (Seg) 2–6] and measured for fluorescence anisotropy. The resulting values from triplicate assays (mean±s.d.) are normalized to that for the no competitor peptide condition.
# Next, we performed an in vitro competition assay to monitor the affinity of the Subregion I segments for the CSSR. A recombinant CSSR protein tagged with the maltose-binding protein (MBP–CSSR) was expressed in Escherichia coli and purified with amylose resin ([Kimata et al., 2007]). […]
substance,measurement,setting,value
Segment 4: Untagged competitor peptide NH2-KKKA-[10 amino acids of Segment 4 of yeast Ire1 Subregion I]-AAKKKK-COOH (H-KKKAIPAPRTTEGLAAKKKK-OH),Affinity of capture by the CSSR relative to other Subregion I segments,in vitro competition analysis,higher affinity than for other segments
same,Reduction of ΔEspP–FAM fluorescence anisotropy by competitor peptide (reduced association between ΔEspP–FAM and MBP–CSSR),"ΔEspP–FAM 10 µM, MBP–CSSR 5 µM, elution buffer A (50 mM HEPES pH 8.0), 30 min incubation, 25°C, triplicate assays, normalized to no competitor",more effectively than the other segments did
